Test results reported in patent US4617314A, “Benzofuran- and benzopyran-carboxamide derivatives” (priority 1983, dated 1986).

Experiments:
[1] = tested on: hypermotility of mice induced by apomorphine; assay: Anti-apomorphine Action (mice): suppression of spontaneous motility; assay type: in vivo, mice (male dd-strain); conditions: 60 min before 0.5 mg/kg apomorphine hydrochloride, 50% suppression of spontaneous motility; for Anti-apomorphine Action ED50, Mice, Motility: p.o.; for ED50: Mus musculus, po
From the text: (§1) Dopamine antagonism was observed by the antagonism to
(1) hypermotility of mice, and
(§2) induced by the administration of apomorphine to the animals which drug acts on dopamine. The response of (1) is considered to be due to the action of dopamine on the mesolimbic system whereas the response of (2) is regarded mainly as the action of dopamine on the extrapyramidal system. As a consequence, a drug having high selectivity to the antagonism to the response of (1) is deemed to be more useful with less extrapyramidal side effects.
Groups of 5 male dd-strain mice were used. Test compounds were orally administered and 60 minutes thereafter, 0.5 mg/kg of apomorphine hydrochloride was intracutaneously administered. Immediately thereafter, spontaneous motility of the mice was measured with the aid of Animex (manufactured by Columbus Company, U.S.A.) for 20 minutes. The procedure was repeated three times with respective groups. The dose of test compounds required for 50% suppression of spontaneous motility of control group was graphically intraporated and determined as ED50 value.

[2] = tested on: stereotyped behavior of rats induced by apomorphine; assay: Anti-apomorphine Action (rats): suppression of gnawing (stereotyped) behavior; assay type: in vivo, rats (female Wistar); conditions: Rattus norvegicus, po, 60 min before 1.25 mg/kg i.v. apomorphine hydrochloride; 50% suppression of gnawing behavior; probit
From the text: as §1
(2) stereotyped behavior of rats
as §2
Groups of 7 female Wistar rats were used. Test compounds were orally administered, 60 minutes thereafter, apomorphine hydrochloride was intravenously administered at a dosage of 1.25 mg/kg. After 5 minutes and 20 minutes, respectively, whether gnawing behavior (stereotyped behavior) appears or not during the period of 5 minutes was observed. The dose of test compounds required for 50% suppression of the appearance was evaluated as ED50 value by probit method.

[3] = tested on: rats administered with methamphetamine; assay: Methamphetamine Potentiation Action (lethality increasing effect); assay type: in vivo, rats (male Wistar); conditions: 8 rats/group, methamphetamine hydrochloride 5 mg/kg i.p.
Description: Activation effect was construed as lethality increasing effect of a test drug on rats which were administered with methamphetamine at a non-lethal dose every week. Accordingly, it is considered that the greater is the number of rats which died at a lower dose in an earlier week, the activation activity is the higher.
Groups of 8 male Wistar rats weighing above […] were used. Test compounds are intraperitoneally administered and 15 minutes thereafter, 5 mg/kg of methamphetamine hydrochloride was intraperitoneally administered. Number of dead rats within one week was counted. In the 2nd to 4th week, experiment was likewise repeated at one week intervals by the administration of test compounds and methamphetamine hydrochloride.

CCN1CCCC1CNC(=O)c1cc(S(N)(=O)=O)cc2c1OC(C)C2 (single isomer, unassigned) [B, N-(1-ethyl-2-pyrrolidinylmethyl)-2-methyl-5-sulfamoyl-2,3-dihydrobenzofuran-7-carboxamide]
Anti-apomorphine Action ED50, Mice, Motility [1]: 23 mg/kg

CCN1CCCC1CNC(=O)c1cc(S(N)(=O)=O)cc2c1OC(C)C2 (single isomer, unassigned) [C, N-(1-ethyl-2-pyrrolidinylmethyl)-2-methyl-5-sulfamoyl-2,3-dihydrobenzofuran-7-carboxamide]
Anti-apomorphine Action ED50, Mice, Motility [1]: 85 mg/kg

CCN1CCCC1CNC(=O)c1cc(S(N)(=O)=O)cc2c1OC(C)C2 (centres unmarked) [A, N-(1-ethyl-2-pyrrolidinylmethyl)-2-methyl-5-sulfamoyl-2,3-dihydrobenzofuran-7-carboxamide]
ED50 [1]: 80 mg/kg
ED50 [2]: > 100 mg/kg
Methamphetamine Potentiation Action, Number of Dead Animal, Total Number ([3]; 1st Week, 5 mg/kg): 1
Methamphetamine Potentiation Action, Number of Dead Animal, Total Number ([3]; 1st Week, 10 mg/kg): 0
Methamphetamine Potentiation Action, Number of Dead Animal, Total Number ([3]; 1st Week, 20 mg/kg): 2
Methamphetamine Potentiation Action, Number of Dead Animal, Total Number ([3]; 2nd Week, 5 mg/kg): 1
Methamphetamine Potentiation Action, Number of Dead Animal, Total Number ([3]; 2nd Week, 10 mg/kg): 3
Methamphetamine Potentiation Action, Number of Dead Animal, Total Number ([3]; 2nd Week, 20 mg/kg): 5
Methamphetamine Potentiation Action, Number of Dead Animal, Total Number ([3]; 3rd Week, 5 mg/kg): 1
Methamphetamine Potentiation Action, Number of Dead Animal, Total Number ([3]; 3rd Week, 10 mg/kg): 4
Methamphetamine Potentiation Action, Number of Dead Animal, Total Number ([3]; 3rd Week, 20 mg/kg): 5
Methamphetamine Potentiation Action, Number of Dead Animal, Total Number ([3]; 4th Week, 5 mg/kg): 1
Methamphetamine Potentiation Action, Number of Dead Animal, Total Number ([3]; 4th Week, 10 mg/kg): 4
Methamphetamine Potentiation Action, Number of Dead Animal, Total Number ([3]; 4th Week, 20 mg/kg): 7

CC1Cc2cc(S(N)(=O)=O)cc(C(=O)NC3CCN(Cc4ccccc4)C3)c2O1 (centres unmarked) [Compound E, N-(1-benzyl-3-pyrrolidinyl)-2-methyl-5-sulfamoyl-2,3-dihydrobenzofuran-7-carboxamide]
ED50 [1]: 100 mg/kg
ED50 [2]: > 100 mg/kg

CCCCN1CCCC1CNC(=O)c1cc(S(N)(=O)=O)cc2c1OC(C)C2 (centres unmarked) [Compound I, N-(1-butyl-2-pyrrolidinylmethyl)-2-methyl-5-sulfamoyl-2,3-dihydrobenzofuran-7-carboxamide]
ED50 [1]: 30 mg/kg
ED50 [2]: > 100 mg/kg

CC1Cc2cc(S(N)(=O)=O)cc(C(=O)NCC3CCCN3Cc3ccccc3)c2O1 (centres unmarked) [D, N-(1-benzyl-2-pyrrolidinylmethyl)-2-methyl-5-sulfamoyl-2,3-dihydrobenzofuran-7-carboxamide]
ED50 [1]: 6 mg/kg
ED50 [2]: 21 mg/kg

NS(=O)(=O)c1cc2c(c(C(=O)NCC3CCCN3Cc3ccccc3)c1)OCC2 (centres unmarked) [F, N-(1-benzyl-2-pyrrolidinylmethyl)-5-sulfamoyl-2,3-dihydrobenzofuran-7-carboxamide]
ED50 [1]: 17 mg/kg
ED50 [2]: > 100 mg/kg
Methamphetamine Potentiation Action, Number of Dead Animal, Total Number ([3]; 1st Week, 10 mg/kg): 0
Methamphetamine Potentiation Action, Number of Dead Animal, Total Number ([3]; 1st Week, 25 mg/kg): 0
Methamphetamine Potentiation Action, Number of Dead Animal, Total Number ([3]; 1st Week, 50 mg/kg): 0
Methamphetamine Potentiation Action, Number of Dead Animal, Total Number ([3]; 2nd Week, 10 mg/kg): 0
Methamphetamine Potentiation Action, Number of Dead Animal, Total Number ([3]; 2nd Week, 25 mg/kg): 0
Methamphetamine Potentiation Action, Number of Dead Animal, Total Number ([3]; 2nd Week, 50 mg/kg): 2
Methamphetamine Potentiation Action, Number of Dead Animal, Total Number ([3]; 3rd Week, 10 mg/kg): 0
Methamphetamine Potentiation Action, Number of Dead Animal, Total Number ([3]; 3rd Week, 25 mg/kg): 1
Methamphetamine Potentiation Action, Number of Dead Animal, Total Number ([3]; 3rd Week, 50 mg/kg): 3
Methamphetamine Potentiation Action, Number of Dead Animal, Total Number ([3]; 4th Week, 10 mg/kg): 1
Methamphetamine Potentiation Action, Number of Dead Animal, Total Number ([3]; 4th Week, 25 mg/kg): 2
Methamphetamine Potentiation Action, Number of Dead Animal, Total Number ([3]; 4th Week, 50 mg/kg): 6

CC(C)CN1CCCC1CNC(=O)c1cc(S(N)(=O)=O)cc2c1OCC2 (centres unmarked) [G, N-(1-isobutyl-2-pyrrolidinylmethyl)-5-sulfamoyl-2,3-dihydrobenzofuran-7-carboxamide]
ED50 [1]: 35 mg/kg
ED50 [2]: > 100 mg/kg

CC(C)CN1CCCC1CNC(=O)c1cc(S(N)(=O)=O)cc2c1OC(C)C2 (centres unmarked) [H, N-(1-isobutyl-2-pyrrolidinylmethyl)-2-methyl-5-sulfamoyl-2,3-dihydrobenzofuran-7-carboxamide]
ED50 [1]: 19 mg/kg
ED50 [2]: 60 mg/kg
Methamphetamine Potentiation Action, Number of Dead Animal, Total Number ([3]; 1st Week, 20 mg/kg): 0
Methamphetamine Potentiation Action, Number of Dead Animal, Total Number ([3]; 1st Week, 40 mg/kg): 2
Methamphetamine Potentiation Action, Number of Dead Animal, Total Number ([3]; 2nd Week, 20 mg/kg): 6
Methamphetamine Potentiation Action, Number of Dead Animal, Total Number ([3]; 2nd Week, 40 mg/kg): 4
Methamphetamine Potentiation Action, Number of Dead Animal, Total Number ([3]; 3rd Week, 20 mg/kg): 6
Methamphetamine Potentiation Action, Number of Dead Animal, Total Number ([3]; 3rd Week, 40 mg/kg): 7
Methamphetamine Potentiation Action, Number of Dead Animal, Total Number ([3]; 4th Week, 20 mg/kg): 7
Methamphetamine Potentiation Action, Number of Dead Animal, Total Number ([3]; 4th Week, 40 mg/kg): 7

CCN1CCCC1CNC(=O)c1cc(S(=O)(=O)NC)cc2c1OC(C)C2.Cl (centres unmarked) [J, N-(1-ethyl-2-pyrrolidinylmethyl)-2-methyl-5-methylsulfamoyl-2,3-dihydrobenzofuran-7-carboxamide hydrochloride]
ED50 [1]: 10 mg/kg
ED50 [2]: > 100 mg/kg

CCN1CCCC1CNC(=O)c1cc(SC)cc2c1OC(C)C2.Cl (centres unmarked) [K, N-(1-ethyl-2-pyrrolidinylmethyl)-2-methyl-5-methylthio-2,3-dihydrobenzofuran-7-carboxamide hydrochloride]
ED50 [1]: 0.65 mg/kg
ED50 [2]: 0.2 mg/kg

CCN1CCCC1CNC(=O)c1cc(S(N)(=O)=O)cc2c1OCC2.O (centres unmarked) [L, N-(1-ethyl-2-pyrrolidinylmethyl)-5-sulfamoyl-2,3-dihydrobenzofuran-7-carboxamide monohydrate]
Methamphetamine Potentiation Action, Number of Dead Animal, Total Number ([3]; 1st Week, 25 mg/kg): 3
Methamphetamine Potentiation Action, Number of Dead Animal, Total Number ([3]; 2nd Week, 25 mg/kg): 3
Methamphetamine Potentiation Action, Number of Dead Animal, Total Number ([3]; 3rd Week, 25 mg/kg): 7
Methamphetamine Potentiation Action, Number of Dead Animal, Total Number ([3]; 4th Week, 25 mg/kg): 8
